{"source": "paper PMC8859984", "about": "(Journal of medicinal chemistry, 2020)", "key": {"H3K27me3": {"test_system": "H3K27me3", "experiment": "Pharmacodynamic analysis of H3K27me3 in KARPAS422 xenograft tumor tissue", "type": "in vivo, SCID mice", "details": "single 100 mg/kg oral administration, 24 h, Western blotting"}, "[1]": {"experiment": "Animal body weights during the KARPAS422 xenograft efficacy experiment", "type": "in vivo, SCID mice", "details": "50 and 100 mg/kg oral gavage daily for 28 days"}, "[2]": {"test_system": "KARPAS422 xenograft model", "experiment": "Antitumor activity in the KARPAS422 xenograft model", "type": "in vivo, SCID mice", "details": "for tumor regression in KARPAS422 xenograft model: 50 and 100 mg/kg via oral gavage, daily for 28 days"}, "EED (1–441)-His protein": {"biological_target": "EED (1–441)-His protein (Homo sapiens, UniProt O75530)", "sequence (O75530 whole entry)": "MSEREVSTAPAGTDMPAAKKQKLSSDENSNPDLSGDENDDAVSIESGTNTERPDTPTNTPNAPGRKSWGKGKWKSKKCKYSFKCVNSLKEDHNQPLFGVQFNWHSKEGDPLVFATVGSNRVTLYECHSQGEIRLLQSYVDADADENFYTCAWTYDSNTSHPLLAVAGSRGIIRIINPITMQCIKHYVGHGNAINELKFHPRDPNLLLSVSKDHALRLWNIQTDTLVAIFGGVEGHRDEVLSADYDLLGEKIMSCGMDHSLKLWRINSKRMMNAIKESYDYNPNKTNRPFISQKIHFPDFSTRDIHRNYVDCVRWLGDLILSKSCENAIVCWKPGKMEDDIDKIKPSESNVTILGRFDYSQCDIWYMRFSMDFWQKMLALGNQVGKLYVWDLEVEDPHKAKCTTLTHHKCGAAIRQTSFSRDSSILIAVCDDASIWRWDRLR", "experiment": "EED-H3K27me3 peptide competition binding assay by AlphaScreen", "details": "vs compound 21"}, "tumor growth": {"test_system": "tumor growth", "details": "300 mg/kg twice a week subcutaneous injections for 5 weeks; cited from earlier work"}, "KARPAS422 cell tumor": {"test_system": "KARPAS422 cell tumor", "details": "300 mg/kg twice daily via oral gavage; cited from earlier work"}}, "note": "“Also recorded” adds a separate entry of the source."}
{"smiles": "CCOC(=O)c1ncn2c(NCc3ccco3)ncc(-c3ccccc3)c12", "note": "[Compound 8, Ethyl 5-((Furan-2-ylmethyl)amino)-8-phenylimidazo[1,5-c]-pyrimidine-1-carboxylate]", "values": [{"measurement": "times more potent than 7 in inhibition of cell growth in KARPAS422", "setting": "KARPAS422 cells; vs compound 7", "result": 2, "unit": "times"}]}
{"smiles": "CCOC(=O)c1ncn2c(NCc3ccccc3)ncc(-c3ccccc3)c12", "note": "[Compound 10, Ethyl 5-(Benzylamino)-8-phenylimidazo[1,5-c]pyrimidine-1-carboxylate]", "values": [{"measurement": "times less potent than 8 in cellular assay", "setting": "KARPAS422 cells; vs compound 8, KARPAS422", "result": "2–3 times"}]}
{"smiles": "CCOC(=O)c1ncn2c(NCc3c(F)cccc3OC)ncc(-c3ccccc3)c12", "note": "[Compound 12, Ethyl 5-((2-Fluoro-6-methoxybenzyl)amino)-8-phenylimidazo-[1,5-c]pyrimidine-1-carboxylate]", "values": [{"measurement": "times more potent than 11 in cell growth inhibition in KARPAS422", "setting": "KARPAS422 cells; vs compound 11", "result": 6, "unit": "times"}]}
{"smiles": "CCOC(=O)c1ncn2c(NCc3cc(OC)ccc3F)ncc(-c3ccccc3)c12", "note": "[Compound 13, Ethyl 5-((2-Fluoro-5-methoxybenzyl)amino)-8-phenylimidazo-[1,5-c]pyrimidine-1-carboxylate]", "values": [{"measurement": "times less potent than 12 in cell growth inhibition in KARPAS422", "setting": "KARPAS422 cells; vs compound 12", "result": 8, "unit": "times"}]}
{"smiles": "CCOC(=O)c1ncn2c(NCc3cccc4c3CCO4)ncc(-c3ccccc3)c12", "note": "[Compound 17, Ethyl 5-(((2,3-Dihydrobenzofuran-4-yl)methyl)amino)-8-phenylimidazo[1,5-c]pyrimidine-1-carboxylate]", "values": [{"measurement": "times more potent than 16 in inhibition of cell growth in KARPAS422", "setting": "KARPAS422 cells; vs compound 16", "result": 30, "unit": "times"}]}
{"smiles": "CS(=O)(=O)c1ncn2c(NCc3c(F)ccc4c3CCO4)ncc(-c3ccc(F)cc3)c12", "note": "[Compound 24, N-((5-Fluoro-2,3-dihydrobenzofuran-4-yl)methyl)-8-(4-fluorophenyl)-1(methylsulfonyl)imidazo[1,5-c]pyrimidin-5-amine]", "values": [{"measurement": "times less potent than 21 in inhibition of KARPAS422 cell growth", "setting": "KARPAS422 cells; vs compound 21", "result": "2–3 times"}]}
{"smiles": "CS(=O)(=O)c1ncn2c(NCc3c(F)ccc4c3CCO4)ncc(-c3ccc(C4CC4)nc3)c12", "note": "[Compound 28, 8-(6-Cyclopropylpyridin-3-yl)-N-((5-fluoro-2,3-dihydrobenzofuran-4-yl)methyl)-1-(methylsulfonyl)imidazo[1,5-c]pyrimidin-5-amine]", "values": [{"measurement": "level of H3K27me3 in KARPAS422 tumor tissue", "setting": "H3K27me3", "result": "effectively reduces the level of H3K27me3"}, {"measurement": "animal weight loss during the entire experiment", "setting": "[1]", "result": "minimal weight loss"}, {"measurement": "tumor regression in KARPAS422 xenograft model", "setting": "[2]; listed as EEDi-5285", "result": "complete and durable tumor regression; also recorded: complete and long-lasting tumor regression"}, {"measurement": "regrowth of tumors after end of treatment", "setting": "[2]; after treatment had been stopped for 72 days, 50 and 100 mg/kg oral daily for 28 days", "result": "no regrowth of tumors was observed"}, {"measurement": "times more potent than 21 in inhibition of KARPAS422 cell growth", "setting": "KARPAS422 cells; vs compound 21", "result": "3–4 times"}, {"measurement": "times more potent than 21 in binding to EED", "setting": "EED (1–441)-His protein", "result": "3–4 times"}]}
{"smiles": "CS(=O)(=O)c1ncn2c(NCc3c(F)ccc4c3CCO4)ncc(-c3ccc(C(F)F)nc3)c12", "note": "[Compound 29, 8-(6-(Difluoromethyl)pyridin-3-yl)-N-((5-fluoro-2,3-dihydrobenzofuran-4-yl)methyl)-1-(methylsulfonyl)imidazo[1,5-c]pyrimidin-5-amine]", "values": [{"measurement": "times more potent than 21 in binding to EED", "setting": "EED (1–441)-His protein", "result": 5, "unit": "times"}]}
{"smiles": "Cc1ccc(-c2cnc(NCc3c(F)ccc4c3CCO4)n3cnc(S(C)(=O)=O)c23)c(C)n1", "note": "[Compound 32, 8-(2,6-Dimethylpyridin-3-yl)-N-((5-fluoro-2,3-dihydrobenzofuran-4-yl)methyl)-1-(methylsulfonyl)imidazo[1,5-c]pyrimidin-5-amine]", "values": [{"measurement": "level of H3K27me3 in KARPAS422 tumor tissue", "setting": "H3K27me3", "result": "effectively reduces the level of H3K27me3"}, {"measurement": "tumor regression in KARPAS422 xenograft model", "setting": "[2]; listed as EEDi-1056", "result": "complete tumor regression"}]}
{"smiles": "CS(=O)(=O)c1ncn2c(NCc3c(F)ccc4c3CCO4)ncc(C3CCOCC3)c12", "note": "[Compound 35, N-((5-Fluoro-2,3-dihydrobenzofuran-4-yl)methyl)-1-(methylsulfonyl)-8-(tetrahydro-2H-pyran-4-yl)imidazo[1,5-c]pyrimidin-5-amine]", "values": [{"measurement": "times less potent than 21 in inhibition of KARPAS422 cell growth", "setting": "KARPAS422 cells; vs compound 21", "result": 24, "unit": "times"}, {"measurement": "times less potent than 21 in binding to EED", "setting": "EED (1–441)-His protein", "result": 17, "unit": "times"}]}
{"smiles": "CN(C)[C@H]1CN(C2CCc3cccc(F)c32)C[C@@H]1c1ccc(N2CCN(S(C)(=O)=O)CC2)cc1", "note": "(stereo partly shown) [Compound A-395]", "values": [{"measurement": "inhibition of tumor growth", "setting": "tumor growth", "result": 84, "unit": "%"}]}
{"smiles": "CS(=O)(=O)c1ccc(-c2cnc(NCc3ccco3)n3cnnc23)cc1", "note": "[EED226]", "values": [{"measurement": "KARPAS422 cell tumor regression", "setting": "KARPAS422 cell tumor", "result": "complete KARPAS422 cell tumor regression"}]}
